Our source for the GI50 and TGI values is PubChem BioAssay (NCI).

Among the test systems are HL-60(TB) leukemia; HS 578T breast; LOX IMVI melanoma; MOLT-4 leukemia; NCI-H460 lung; OVCAR-4 ovarian; SF-295 CNS; SW-620 colon; UACC-257 melanoma; MDA-MB-435.
Experiment in all cases: NCI anticancer screen, dose series, 48 h

SMILES strings stand for the structures.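 The compound was tested at five concentrations on cells cultured in 96-well plates, with a 48-hour exposure period. Here, GI50 denotes the concentration required for 50% inhibition of growth. TGI: total growth inhibition.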 A value given as a limit tells only on which side of the number the result lay.

`Nc1c(C(=O)Nc2cccc3ccccc23)sc2nc3c(cc12)CCCCCC3`: the GI50 with HL-60(TB) leukemia was 1.65 µM; with HS 578T breast it was 1.59 µM; in the assay on LOX IMVI melanoma, 1.96 µM; with MOLT-4 leukemia, 2.38 µM; in the assay on NCI-H460 lung, 1.76 µM; with OVCAR-4 ovarian it was 5.75 µM. The GI50 was 1.39 µM in the assay on SF-295 CNS, 1.45 µM in the assay on SW-620 colon and more than 50 µM in the assay on UACC-257 melanoma. For the same compound, the TGI with HL-60(TB) leukemia, with HS 578T breast, with LOX IMVI melanoma, in the assay with MOLT-4 leukemia, in the assay on NCI-H460 lung and in the assay on OVCAR-4 ovarian was more than 50 µM throughout. Moreover, the TGI with SF-295 CNS, with SW-620 colon and in the assay on UACC-257 melanoma was more than 50 µM each time.

Regarding `CC(=O)O[C@H]1CC[C@@]2(C)[C@@H](CC[C@@H]3[C@@H]2CC(=O)[C@@]2(C)[C@H]3C[C@@H]3CC(C)=CC(=O)[C@@H]32)C1`, the TGI was 27.8 µM in the assay on HL-60(TB) leukemia; 80.3 µM in the assay with HS 578T breast; more than 100 µM in the assay on LOX IMVI melanoma; more than 100 µM with MDA-MB-435; more than 100 µM with OVCAR-4 ovarian; more than 100 µM in the assay on SF-295 CNS. Also, the TGI in the assay on SW-620 colon and in the assay with UACC-257 melanoma was more than 100 µM in each case.

For `COC(=O)c1cccc(COc2ccc([N+](=O)[O-])cc2Cl)c1`, the TGI in the assay with HS 578T breast, in the assay on LOX IMVI melanoma, with MDA-MB-435, in the assay with MOLT-4 leukemia, in the assay on NCI-H460 lung and in the assay on OVCAR-4 ovarian was more than 100 µM throughout. Further, the TGI in the assay on SF-295 CNS, with SW-620 colon and in the assay with UACC-257 melanoma was more than 100 µM each time.

Consider `COc1ccc2c(C(=O)NCCCCCC(=O)O)cc3cc4c(cc3c2c1)OCO4`, for which the GI50 in the assay on HS 578T breast, in the assay with LOX IMVI melanoma, in the assay with MDA-MB-435, in the assay on MOLT-4 leukemia, in the assay with NCI-H460 lung and with SF-295 CNS was more than 100 µM in each case. The GI50 with SW-620 colon and with UACC-257 melanoma was more than 100 µM each time. For the same compound, the TGI with HS 578T breast, in the assay with LOX IMVI melanoma, in the assay with MDA-MB-435, in the assay with MOLT-4 leukemia, in the assay with NCI-H460 lung and with SF-295 CNS was more than 100 µM each time. For the same compound, the TGI in the assay with SW-620 colon and in the assay with UACC-257 melanoma was more than 100 µM throughout.

For the compound `Cc1cc(=O)[nH]c2c1C(=O)C(=O)C=C2`, the GI50 in the assay on HS 578T breast was 40.4 µM; in the assay on MDA-MB-435, 15.1 µM; with MOLT-4 leukemia, 39.5 µM; with NCI-H460 lung, 27.1 µM; in the assay on OVCAR-4 ovarian it was 25.6 µM; in the assay with SF-295 CNS, 24.1 µM. Further, the GI50 is 24.7 µM in the assay with SW-620 colon and more than 100 µM with UACC-257 melanoma. Further, the TGI in the assay on HS 578T breast is more than 100 µM; in the assay on MDA-MB-435 it was 33.2 µM; in the assay with MOLT-4 leukemia, more than 100 µM; in the assay with NCI-H460 lung, 74 µM; in the assay with OVCAR-4 ovarian it was 63.4 µM; in the assay with SF-295 CNS it was 52.8 µM. The values for the TGI in the assay on SW-620 colon and in the assay on UACC-257 melanoma were 67.8 µM and more than 100 µM, respectively.

`OC(c1cc2c(Cl)cc(Cl)cc2c2cc(C(F)(F)F)ccc12)C1CCCCN1` (stereo not given): the GI50 with HL-60(TB) leukemia was 1.85 µM; with HS 578T breast it was 1.59 µM; in the assay with MDA-MB-435 it was 2.14 µM; in the assay with NCI-H460 lung, 1.7 µM; in the assay with OVCAR-4 ovarian, 2.11 µM; with SW-620 colon it was 1.76 µM. The GI50 in the assay with UACC-257 melanoma was 1.92 µM. The TGI came to 3.71 µM in the assay with HL-60(TB) leukemia; 3.72 µM with HS 578T breast; 4.75 µM with MDA-MB-435; 3.4 µM with NCI-H460 lung; 4.08 µM in the assay with OVCAR-4 ovarian; 3.64 µM in the assay with SW-620 colon. For the same compound, the TGI with UACC-257 melanoma turned out to be 3.7 µM.

As to `C/C(=N\O)c1ccc(Nc2cc(-c3ccccc3)nc3c(O)cccc23)cc1`, the GI50 in the assay with HL-60(TB) leukemia was 0.585 µM; in the assay on HS 578T breast, 15.9 µM; in the assay with LOX IMVI melanoma, 6.71 µM; in the assay with MDA-MB-435, 6.72 µM; in the assay with OVCAR-4 ovarian, 25.4 µM; in the assay on SF-295 CNS, 5.24 µM. Also, the GI50 is 13.9 µM with SW-620 colon and 11.7 µM in the assay on UACC-257 melanoma. For the same compound, the TGI was 96.6 µM in the assay on HL-60(TB) leukemia; 62.4 µM with HS 578T breast; 24 µM with LOX IMVI melanoma; 26.6 µM with MDA-MB-435; 73.2 µM with OVCAR-4 ovarian; 18.3 µM in the assay on SF-295 CNS. Further, the TGI in the assay on SW-620 colon is 34.2 µM; with UACC-257 melanoma it was 24.4 µM.

With `COc1ccc2nc3c(cc2c1)C(=O)CC(C(F)(F)F)C3` (stereo not given), the GI50 in the assay with HL-60(TB) leukemia was 0.333 µM; in the assay with HS 578T breast, 2.19 µM; in the assay with LOX IMVI melanoma, 3.54 µM; with MOLT-4 leukemia it was 0.108 µM; with NCI-H460 lung, 1.87 µM; in the assay with OVCAR-4 ovarian it was 27 µM. Besides, the GI50 was 1.41 µM in the assay with SF-295 CNS, 2.68 µM with SW-620 colon and more than 96.2 µM in the assay with UACC-257 melanoma. Further, the TGI with HL-60(TB) leukemia was more than 46.8 µM; in the assay on HS 578T breast, more than 100 µM; in the assay with LOX IMVI melanoma, more than 100 µM; in the assay on MOLT-4 leukemia, more than 100 µM; with NCI-H460 lung, more than 100 µM; with OVCAR-4 ovarian it was more than 100 µM. The TGI is 23.3 µM in the assay on SF-295 CNS, more than 100 µM in the assay with SW-620 colon and more than 100 µM in the assay on UACC-257 melanoma.
